As usually defined, the Km is the concentration of substrate that gives half-maximal velocity. One may read the inhibition as the relative decrease from the control value, in per cent.

“Also recorded” adds a separate entry of the source. A value given as a limit tells only on which side of the number the result lay.

We go through four molecules from patent US5487990A (The General Hospital Corporation, priority 1992, dated 1996).

In data set [1] the target is T1, Acetyl-CoA Hydrolase from S. cerevisiae (Saccharomyces cerevisiae, UniProt P32316).
T1 sequence (P32316 1-526): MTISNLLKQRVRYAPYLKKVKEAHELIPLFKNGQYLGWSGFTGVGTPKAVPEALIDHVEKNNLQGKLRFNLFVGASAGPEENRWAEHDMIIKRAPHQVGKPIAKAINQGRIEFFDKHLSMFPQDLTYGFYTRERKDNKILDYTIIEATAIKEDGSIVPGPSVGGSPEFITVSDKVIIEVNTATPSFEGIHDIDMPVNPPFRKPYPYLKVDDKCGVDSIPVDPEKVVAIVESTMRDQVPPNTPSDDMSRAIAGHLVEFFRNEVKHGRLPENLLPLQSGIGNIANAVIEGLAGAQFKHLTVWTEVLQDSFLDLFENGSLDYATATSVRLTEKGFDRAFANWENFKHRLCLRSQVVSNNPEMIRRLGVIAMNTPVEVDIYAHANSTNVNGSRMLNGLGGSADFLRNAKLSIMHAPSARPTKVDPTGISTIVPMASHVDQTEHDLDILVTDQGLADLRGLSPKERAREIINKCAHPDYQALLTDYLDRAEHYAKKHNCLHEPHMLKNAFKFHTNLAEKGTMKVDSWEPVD
The data set is described as follows: Substrate specificity, colorimetric assay (DNTB, A412). The data set is classed as biochemical. The following applies: read-out: Relative Activity (%).

Data set [2] addresses T1, Acetyl-CoA Hydrolase from S. cerevisiae. The data set can be described thus: biochemical.
Data set [3] has as its system mitochondrial enzyme from hamster brown fat. The following applies: cited from earlier work.
For data set [4], the target named is T2, soluble cytosolic acetyl-CoA hydrolase found in rat liver (Rattus norvegicus, UniProt Q99NB7).
T2 construct: host or cells: rat liver cytoplasm (Prass et al. 1980; Soling et al. 1985)
As to conditions: rat liver cytoplasmic, cold-labile enzyme; cited from earlier work.

In data set [5] the test system is mitochondrial acetyl-CoA hydrolase. The following applies: cited from earlier work.
Data set [6] concerns the target Human ACTH (1-24) (human) (UniProt P01189).
Substrate in data set [7]: CC(=O)SCCNC(=O)CCNC(=O)[C@H](O)C(C)(C)COP(=O)(O)OP(=O)(O)OC[C@H]1O[C@@H](n2cnc3c(N)ncnc32)[C@H](O)[C@@H]1OP(=O)(O)O
The data set can be described thus: purified protein, by the assay type. The following applies: other: substrate acetyl-CoA; Lineweaver-Burk plot; pH 7.4; 30.0 °C.

Setting [8] is: pH 7.4, read-out: Enzyme Activity (%).

T2 sequence (Q99NB7 whole entry): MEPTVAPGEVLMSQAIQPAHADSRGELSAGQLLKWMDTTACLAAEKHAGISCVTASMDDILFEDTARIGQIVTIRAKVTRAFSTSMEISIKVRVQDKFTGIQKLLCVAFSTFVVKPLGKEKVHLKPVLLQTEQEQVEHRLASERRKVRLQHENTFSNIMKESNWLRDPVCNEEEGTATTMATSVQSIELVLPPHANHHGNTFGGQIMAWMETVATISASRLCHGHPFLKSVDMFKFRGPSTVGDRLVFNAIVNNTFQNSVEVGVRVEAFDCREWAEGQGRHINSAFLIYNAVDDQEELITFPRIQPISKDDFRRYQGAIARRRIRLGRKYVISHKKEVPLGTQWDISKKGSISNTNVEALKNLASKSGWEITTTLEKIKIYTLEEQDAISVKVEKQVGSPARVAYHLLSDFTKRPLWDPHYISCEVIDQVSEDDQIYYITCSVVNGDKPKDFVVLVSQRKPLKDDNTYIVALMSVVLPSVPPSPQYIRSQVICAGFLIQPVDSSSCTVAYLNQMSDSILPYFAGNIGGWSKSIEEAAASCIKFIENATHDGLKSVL

In the case of `CC(=O)SCCNC(=O)CCNC(=O)[C@H](O)C(C)(C)COP(=O)(O)OP(=O)(O)OC[C@H]1O[C@@H](n2cnc3c(N)ncnc32)[C@H](O)[C@@H]1OP(=O)(O)O` [Acetyl-CoA, acetyl coenzyme A], the activity at 250 µM in data set [1] turned out to be 100%. In addition, the “effect on yeast enzyme activity (in words)” value in data set [2] is recorded as “inhibited most effectively”. For the same molecule, in data set [2] (setting [8]), the remaining activity at 100 µM came out at 66%, the remaining activity at 1000 µM was 28% and the remaining activity at 5000 µM turned out to be 5%. Besides, the Michaelis-Menten constant (Km) in data set [2] (substrate acetyl-CoA, Lineweaver-Burk plot, read-out: apparent Km) turned out to be 62 µM. For the same molecule, the Km in data set [3] is 51 µM.
Turning to `CC(C)(COP(=O)(O)OP(=O)(O)OC[C@H]1O[C@@H](n2cnc3c(N)ncnc32)[C@H](O)[C@@H]1OP(=O)(O)O)[C@@H](O)C(=O)NCCC(=O)NCCS` [CoASH, coenzyme A], the “effect on enzyme (in words)” value in data set [4] was “inhibited; also recorded: strong product inhibitor”; in data set [5], “only weakly inhibited; also recorded: weak inhibitor”. Besides, the “effect on yeast enzyme activity (in words)” value in data set [2] is given as “only weakly inhibited”. In addition, the inhibition at 25 µM in data set [2] (read-out: inhibition of hydrolysis of [1-14C] acetyl-CoA) is less than 30%.
“yeast N-alpha-acetyltransferase (enzyme)” gave a transfer of [3H] acetyl group from [3H] acetyl-CoA to ACTH (1-24), units in data set [6] of 63300 units.

B1: Acetyl-CoA Hydrolase from S. cerevisiae (Saccharomyces cerevisiae S288C) (protein)
chain: MTISNLLKQRVRYAPYLKKVKEAHELIPLFKNGQYLGWSGFTGVGTPKAVPEALIDHVEKNNLQGKLRFNLFVGASAGPEENRWAEHDMIIKRAPHQVGKPIAKAINQGRIEFFDKHLSMFPQDLTYGFYTRERKDNKILDYTIIEATAIKEDGSIVPGPSVGGSPEFITVSDKVIIEVNTATPSFEGIHDIDMPVNPPFRKPYPYLKVDDKCGVDSIPVDPEKVVAIVESTMRDQVPPNTPSDDMSRAIAGHLVEFFRNEVKHGRLPENLLPLQSGIGNIANAVIEGLAGAQFKHLTVWTEVLQDSFLDLFENGSLDYATATSVRLTEKGFDRAFANWENFKHRLCLRSQVVSNNPEMIRRLGVIAMNTPVEVDIYAHANSTNVNGSRMLNGLGGSADFLRNAKLSIMHAPSARPTKVDPTGISTIVPMASHVDQTEHDLDILVTDQGLADLRGLSPKERAREIINKCAHPDYQALLTDYLDRAEHYAKKHNCLHEPHMLKNAFKFHTNLAEKGTMKVDSWEPVD
Take B1: the Michaelis constant (Km) in data set [7] worked out at 62 µM.
